Experimental data taken from patent EP1449521A1, “Use of PVP-iodine liposomes for treatment of atopic dermatitis” (EURO-CELTIQUE S.A., priority 2003, dated 2004).

Test system: Human ciliated epithelium cells
Protocol: A cytotoxic damage of these cells which would cause a restriction of the mucociliar clearance can be determined by a detectable decrease of the ciliary vibration.
Human ciliated epithelium cells were analysed by an in-vitro method which enables the determination of the ciliary activity or ciliary vibration. The corresponding cells were exposed and incubated with 100 je.1 test substance at a temperature of 37 C. After an incubation period of 5 minutes the ciliary vibration was measured.
By using this in-vitro method a nutriant solution (Dulbeco) as standard, a 0.2% chlorohexidine solution (typical antiseptic agent), conventional polyvidone iodine solutions (Betaisodona) of different concentrations (5.0%, 2.5% and 1.25% PVP-iodine) and a liposomal solution containing 4.5% of PVP-iodine were tested.

[H]/N=C(\N/C(=N/[H])NCCCCCCNC(=N)NC(=N)Nc1ccc(Cl)cc1)Nc1ccc(Cl)cc1 [chlorohexidine]
ciliary vibration: decrease of the measured ciliary vibration in comparison to the standard
